Drawing on the SangsterLogP compilation, this text covers logP and logD for 38 molecules.

Data set [1] in a line: method code SF-AS, from DOI: 10.1016/0014-2999(72)90235-x, PMID: 4113999.
Data set [2] can be described thus: method code SF, from PMID: 718082.
Test in data set [3]: not given
This is another data set of the same source.

The nature of data set [4]: method code SF-RC, from PMID: 26778147.
Test in data set [5]: not given
The source holds these as a separate data set.

Data set [6] can be described thus: method code SF-AS, from PMID: 7460030. To be noted: pH 7.3.
A short description of data set [7]: method code SF, from Zhang, H, Oberg. B.; Liu, X.; Fan, Z.; Jia, J.; et, a. (2008). Octanol/water partition coefficient determination of novel fungicide SYP-3343 by flask-shaking method using HPLC. Journal of Safety and …. To be noted: pH 5.0.
A short description of data set [8]: method code SF, from DOI: 10.1016/j.bmcl.2013.12.011, PMID: 24342238.
Data set [9] is described as follows: method code SF-RC, from DOI: 10.1016/j.nucmedbio.2006.10.003, PMID: 17210465. Conditions: pH 7.4.
The nature of data set [10]: method code SF-RC, from DOI: 10.1016/j.nucmedbio.2011.10.019, PMID: 22226022. To be noted: pH 7.4.
The nature of data set [11]: method code SF, from DOI: 10.1016/j.ejpb.2011.02.007, PMID: 21329757.
Data set [12] is described as follows: method code SF-HPLC, from DOI: 10.1211/0022357001774101, PMID: 10813545.
Data set [13] is described as follows: method code SF-RC, from DOI: 10.1016/j.nucmedbio.2007.12.005, PMID: 18355688. To be noted: pH 7.4.
Data set [14] can be described thus: method code SF, from DOI: 10.1002/cmdc.201000013, PMID: 20373323. To be noted: pH 7.4.
Data set [15] can be described thus: method code SF-AS, from PMID: 7170648. To be noted: pH 7.4.
Test in data set [16]: not given
The source holds these as a separate data set.

The conditions of data set [17]: pH 7.4.
Data set [18] is described as follows: method code RP-TLC, from DOI: 10.1016/s0021-9673(03)00617-4, PMID: 12830921.
Data set [19] is described as follows: method code SF-HPLC, from DOI: 10.1016/s0223-5234(98)80037-8. Conditions: pH 7.4.
Data set [20] is described as follows: method code SF-RC, from DOI: 10.2174/1874471011003010009, PMID: 20657759. To be noted: pH 7.4.
Test in data set [21]: not given
This is another data set of the same source.

Test in data set [22]: not given
This is another data set of the same source.

Data set [23] in a line: method code SF-AS, from PMID: 1586384.
Data set [24] can be described thus: method code SF, from DOI: 10.1021/jm9910932, PMID: 10633041. Conditions: pH 7.4.
Data set [25] in a line: method code SF-HPLC, from DOI: 10.1248/cpb.39.1032.
The nature of data set [26]: method code SF-RC, from DOI: 10.1016/j.nucmedbio.2014.05.001, PMID: 24969632. To be noted: pH 7.4.
The nature of data set [27]: method code SF, from DOI: 10.1016/j.bmc.2011.10.022, PMID: 22100260. Conditions: pH 7.4.
A short description of data set [28]: method code SF-HPLC, from DOI: 10.1002/jps.2600830407, PMID: 8046599. Conditions: pH 7.0.
Test in data set [29]: not given
This is another data set of the same source.

Test in data set [30]: not given
The source holds these as a separate data set.

Test in data set [31]: not given
This is another data set of the same source.

The nature of data set [32]: method code SF, from DOI: 10.1021/jm980124a, PMID: 9685245. To be noted: pH 13.0.
Data set [33] is described as follows: method code SF-HPLC, from DOI: 10.1002/jps.2600800905, PMID: 1800703. Conditions: pH 7.0.
Data set [34] can be described thus: method code SF, from Huang, J.; Leng, X. (1993). Interaction of rat hepatocyte and cytochrome P 450 with pyrethroids in vitro. Dong Wu Xue Bao, 39(4)418-423.
Test in data set [35]: not given
This is another data set of the same source.

Data set [36] is described as follows: method code SF, from DOI: 10.4103/0250-474x.119813, PMID: 24302794. Conditions: pH 7.4.
A short description of data set [37]: method code SF-AS, from DOI: 10.1016/s0022-3565(25)38749-5, PMID: 8182532. Conditions: pH 7.4.

Non-standard residues stand in square brackets, D forms with d. Residues, ends and D or L forms follow the SMILES beside them. Sar = CNCC(=O)O

Usually logP stands for a log measure of how a compound divides between an organic and an aqueous phase. Low readings indicate a more hydrophilic compound, high ones a more lipophilic compound. In the case of `CN1CN(c2ccccc2)C2(CCN(CCCC(=O)c3ccc(F)cc3)CC2)C1=O`, the logP worked out at 3.37. Turning to `OCCN1CCN(CC/C=C2/c3ccccc3Sc3ccc(C(F)(F)F)cc32)CC1`, the log partition coefficient (logP) in data set [1] is 3.83.

`CC(=O)Nc1c(I)c(COC2C(O)C(O)OC(CO)C2O)c(I)c(COC2C(O)C(O)OC(CO)C2O)c1I` (stereo not drawn): the logP in data set [2] is -1.92. In turn, `CCN(Cc1cccnc1)C(=O)CN(c1ccc(OC)nc1)S(=O)(=O)c1ccccc1C` yielded a logP in data set [3] of 2.24. Turning to `O=C(Nc1ccc(F)cc1)c1ccc(N2CCN(C(=O)c3ccccc3C(F)(F)F)CC2)nn1`, the logP in [4] came to 2.08. On to `CC(C)c1nc(N(C)S(C)(=O)=O)nc(-c2ccc(F)cc2)c1/C=C\C(O)CC(O)CC(=O)O` (stereo not drawn), for which the logP in data set [5] worked out at 2.4. Broadly, the logD is lipophilicity at a set pH, counting ionised and neutral species. Read a high logD as higher lipophilicity. Consider `CCCCCCCOc1cccc(NC(=O)OC2CCCCC2n2ccnc2)c1` (stereo not drawn), for which the logD in data set [6] is 5.64.

Turning to `CO/C=C(/C(=O)OC)c1ccccc1COc1cc(C)nn1-c1ccc(Cl)cc1`, in data set [7], the logD turned out to be 4.37. For `COc1cc(C=CC(O)=CC(=O)C=Cc2ccc(O)c(N(C)C)c2)ccc1O`, in data set [8], the log partition coefficient (logP) came to 3.65.

`CN(C)c1ccc(C=Cc2ccc(OCCOCCOCCF)cc2)cc1` returned a pH-dependent lipophilicity (logD) in data set [9] of 2.41. For `CCCCOc1c(OC)ccc2cc(C(=O)NCc3ccc(F)cc3)c(=O)[nH]c12`, in data set [10], the logD was found to be 4.4. Regarding `C#C[C@]1(O)CC[C@H]2[C@@H]3CCC4=Cc5oncc5C[C@]4(C)[C@H]3CC[C@@]21C`, the logP in [11] is 4.21.

As for `C[C@]12CC[C@H]3[C@@H](CCC4=CC(=O)CC[C@@]43C)[C@@H]1CC[C@@H]2OC(=O)CCC(=O)O`, the logP in data set [12] stood at 3.55. For `CN(Cc1ccccc1)C(=O)Cc1c(-c2ccc(Cl)cc2)nc2c(Cl)cc(Cl)cn12`, in data set [13], the logD came to 2.67. For the molecule `O=C1NC(=O)C(c2ccc(Oc3ccccc3)cc2)(N2CCN(CCF)CC2)C(=O)N1`, in data set [14], the logD came to 2.15. With `CCN(Cc1cc(Nc2ccnc3cc(Cl)ccc23)ccc1O)C(=O)N1CCN(C)CC1`, the logD in data set [15] worked out at 3.43.

In data set [16], `CCC12C=C(C(=O)OCCOC(C)=O)n3c4c(c5ccccc53)CCN(CCC1)C42` (stereo not drawn) gave a lipophilicity (logP) of 4.5. Molecule `Cc1c(C(=O)Nc2ccc(F)cc2)nn(-c2ccc(Cl)cc2Cl)c1-c1ccc(Br)cc1` had a logD in [17] of 4. In the case of `CCOC(=O)C1=C[C@]2(CC)CCCN3CCc4c(n1c1ccccc41)[C@@H]32`, the lipophilicity (logP) in [18] was 4.23. In turn, `COc1ccc2cc(C(C)C(=O)OCN3C(=O)c4ccccc4C3=O)ccc2c1` (stereo not drawn) displayed a logD in data set [19] of 5.03. Consider `COc1ccc2cccc(N3CCN(CCNC(=O)c4ccc(F)cc4)CC3)c2c1`, for which the logD in data set [20] turned out to be 4.14. As to `COc1cc(N)c(Cl)cc1C(=O)NC1CC2CCCC(C1)N2Cc1ccc(F)cc1` (stereo not drawn), the logP in data set [21] was found to be 2.56. In data set [22], `Cc1ccc(N2C(=O)C(=O)N(C(=O)COc3ccc4c(C)cc(=O)oc4c3C)C2=O)cc1` registered a logP of 0.84.

As to `CCOC(=O)OC(C)OC(=O)c1cn2c3c(c(N4CCN(C)CC4)c(F)cc3c1=O)OCC2C` (stereo not drawn), the logP in [23] was found to be 0.44. In data set [24], `CC(=O)NCC(=O)N(C)CC(=O)NC(CC(C)C)C(=O)NC(Cc1ccccc1)C(N)=O` (stereo not drawn) (Ac-G[Sar]LF-NH2; configuration not given here) yielded a logD of 1.64. Consider `C=C[C@@]1(C)CC(=O)[C@]2(O)[C@@]3(C)[C@@H](O)CCC(C)(C)[C@@H]3[C@H](O)[C@H](OC(C)=O)[C@@]2(C)O1`, for which the logP in data set [25] was found to be 3.12. Turning to `O=C(OC(C(F)(F)F)C(F)(F)F)N1CCC(C(O)(c2ccc3c(c2)OCO3)c2ccc3c(c2)OCO3)CC1`, the logD in data set [26] amounted to 4.67. In data set [27], `CCN1CCN(S(=O)(=O)c2cnc(O)c(-c3nc4c5n(nc4c(=O)[nH]3)CCCC5CCOC)c2)CC1` (stereo not drawn) returned a logD of 1.6. In data set [28], `Cc1cn(C2CC(N=[N+]=[N-])C(COC(=O)CNC(=O)C34CC5CC(CC(C5)C3)C4)O2)c(=O)[nH]c1=O` (stereo not drawn) came in with a logD of 2.1. In [29], `FCCCCC1OC2(CCN(Cc3ccccc3)CC2)c2ccccc21` (stereo not drawn) had a logP of 4.06.

As to `O=C(OCC1C2CC3CCC1N3CC2=Cc1ccc(I)c(Cl)c1)c1ccccc1` (stereo not drawn), in [30], the logP was found to be 6.41. The molecule `CC(=O)O[C@]1(C(C)=O)CC[C@H]2[C@@H]3CCC4=CC(=O)CC[C@]4(C)[C@H]3CC[C@@]21C` returned a logP in [31] of 3.79. In turn, `CCC(C)c1ccc(N2CCCN(c3ccc(C(C)CC)cc3)C2=N)cc1` (stereo not drawn) had a logD in data set [32] of 5.28. `CC[C@H](C)C(=O)O[C@H]1C[C@H](O)C=C2C=C[C@H](C)[C@H](CC[C@@H]3C[C@@H](O)CC(=O)O3)[C@H]21` showed a logD in data set [33] of 2.45. Regarding `CC1(C)C(C(=O)OC(C#N)c2cccc(Oc3ccccc3)c2)C1(C)C` (stereo not drawn), in [34], the logP is 5.5. In [35], `CC(=O)OCC(=O)[C@@]1(O)[C@H](C)C[C@H]2[C@@H]3CCC4=CC(=O)C=C[C@]4(C)[C@@]3(F)[C@@H](O)C[C@@]21C` yielded a logP of 2.59. The molecule `CCc1cccc2c3c([nH]c12)C(CC)(CC(=O)N[C@@H](C=O)[C@@H](O)[C@H](O)[C@H](O)CO)OCC3` (stereo partly drawn) displayed a log distribution coefficient (logD) in data set [36] of 1.35. For the molecule `O=S1(=O)c2cccc3cccc(c23)N1CCCN1CCN(c2ccc(F)cc2)CC1`, the logD in [37] was 3.6.
